Test results as given in PubChem BioAssay AID1963983 (Molecular Pharmacology Branch, DTP, NCI, 2024).

System: 186277-243-T-J2-PDC multi-cell spheroid viability
Test: Anticancer human tumor 186277-243-T-J2-PDC patient-derived colon adenocarcinoma cell line growth inhibition [PI3K]
Settings: for IC50: curve of first compound; for viability, T/C: stronger effect = lower value
From the text: Combinatorial screen of targeted agents with the PI3K inhibitors inavolisib, alpelisib, duvelisib, and copanlisib in multi-cell type tumor spheroids
A high-throughput screen of multi-cell type tumor spheroids was designed to identify active combinations of targeted small molecules and PI3K pathway inhibitors. Complex spheroids include a stromal component modeled by human endothelial cells (HUVEC) and fibroblasts modeled by human mesenchymal stem cells (MSCs). The concentration ranges selected for each drug and investigational agent were based upon clinically achievable concentrations if the clinical Cmax of the agent was known.
Compounds. The drugs and investigational agents: inavolisib (NSC800729), alpelisib (NSC765974), duvelisib (NSC772469), copanlisib (NSC816437), ipatasertib (NSC767898), afuresertib (NSC778305), talazoparib (NSC767125), sapanisertib (NSC764658), selumetinib (NSC741078), tovorafenib (DAY101, NSC766906), vemurafenib (NSC761431), ravoxertinib (NSC781343), sotorasib (NSC818433), MRTX1133 (NSC 836407), abemaciclib (NSC 768073), palbociclib (NSC758247), venetoclax (NSC 766270), SY5609 (NSC837396), enzalutamide (NSC755605), and darolutamide (NSC825331), were obtained from the National Cancer Institute (NCI) Developmental Therapeutics Program Chemical Repository. The FDA-approved anticancer drug set is available from the NCI Developmental Therapeutics Program. […] The stock solutions were prepared in dimethyl sulfoxide (DMSO, Sigma-Aldrich, St. Louis, MO, cat. D2650) at 800-fold the tested concentration and stored at -70 degrees C prior to their use. All drugs and investigational agents were tested over a range starting from a high concentration at or near the clinical Cmax and decreasing in half-log increments. If the clinical Cmax for an agent had not been determined, the highest concentration tested was 10 microM.
Cell Culture. All cells were maintained in an incubator at 37 degrees C and 5% CO2 with 95% humidity. The PDC lines were cultured according to standard operating procedures established by the NCI PDMR (https://pdmr.cancer.gov/sops/default.htm). All PDCs were thawed and cultured in Matrigel-coated flasks prepared with a working solution of 1X Ham's F-12 nutrient mix, without supplementation (Invitrogen, Waltham, MA, cat. 11765054), 100 U/mL penicillin-streptomycin (Invitrogen, cat. 15140122), and 2.5% Matrigel (Corning Inc., Corning, NY, cat. 354248) for the first three passages. The 354836-022-R-J1-PDC, 475296-252-R-J1-PDC, and 997726-040-R-J2-PDC lines were cultured in 6A media, which includes advanced DMEM/F-12 (Thermo Fisher Scientific, cat. 12634028), 10 mM HEPES (Thermo Fisher Scientific, cat. 15630080), 1X GlutaMAX supplement (Thermo Fisher Scientific, cat. 35050061), 0.1 mg/mL primocin (InvivoGen, San Diego, CA, cat. ant-pm-2), 10% defined fetal bovine serum, heat inactivated (HyClone Laboratories Inc., Logan, UT, cat. SH30070.03HI), 50% L-WRN conditioned media (ATCC, cat. CRL-3276), 1.25 mM N-Acetyl-L-cysteine (Sigma-Aldrich, cat. A9165), 10 mM nicotinamide (Sigma-Aldrich, cat. N0636), 1X B-27 supplement (Thermo Fisher Scientific, cat. 17504044), 1X N-2 supplement (Thermo Fisher Scientific, cat. 17502048), and 10 microM Y-27632 dihydrochloride (Tocris Bioscience, Bristol, United Kingdom, cat. 1254). The 624824-186-R-J2-PDC line was cultured in 6C/Colon 1B media, which includes all 6A media components plus 50 ng/mL human EGF recombinant protein (Thermo Fisher Scientific, cat. PHG0311). […]

[1] = second compound 0.00316 µM, first compound 0.0316 µM
[2] = second compound 0.00316 µM, first compound 0.1 µM
[3] = second compound 0.00316 µM, first compound 0.316 µM
[4] = second compound 0.00316 µM, first compound 1 µM
[5] = second compound 0.01 µM, first compound 0.0316 µM
[6] = second compound 0.01 µM, first compound 0.1 µM
[7] = second compound 0.01 µM, first compound 0.316 µM
[8] = second compound 0.01 µM, first compound 1 µM
[9] = second compound 0.0316 µM, first compound 0.0316 µM
[10] = second compound 0.0316 µM, first compound 0.1 µM
[11] = second compound 0.0316 µM, first compound 0.316 µM
[12] = second compound 0.0316 µM, first compound 1 µM
[13] = second compound 0.1 µM, first compound 0.0316 µM
[14] = second compound 0.1 µM, first compound 0.1 µM
[15] = second compound 0.1 µM, first compound 0.316 µM
[16] = second compound 0.1 µM, first compound 1 µM
[17] = second compound 0.316 µM, first compound 0.0316 µM
[18] = second compound 0.316 µM, first compound 0.1 µM
[19] = second compound 0.316 µM, first compound 0.316 µM
[20] = second compound 0.316 µM, first compound 1 µM
[21] = second compound 1 µM, first compound 0.0316 µM
[22] = second compound 1 µM, first compound 0.1 µM
[23] = second compound 1 µM, first compound 0.316 µM
[24] = second compound 1 µM, first compound 1 µM
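Note: spheroids exposed to compounds for seven days before viability reading.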
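Throughout, for viability, T/C: 100% = DMSO vehicle control viability.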

With `CCN1CCN(Cc2ccc(Nc3ncc(F)c(-c4cc(F)c5nc(C)n(C(C)C)c5c4)n3)nc2)CC1` + CC(Nc1ccc2c(c1)OCCn1cc(N3C(=O)OCC3C(F)F)nc1-2)C(N)=O as the molecule, how does the IC50 (second compound 0.00316 µM) read?
The IC50 was > 1000 nM.

And the IC50 (second compound 0.01 µM)?
Its IC50 is > 1000 nM.

What about the IC50 (second compound 0.0316 µM) of the same molecule?
Its IC50 is > 1000 nM.

What about the IC50 (second compound 0.1 µM) of the same molecule?
Its IC50 is > 1000 nM.

What about the IC50 (second compound 0.316 µM) of the same molecule?
The IC50 was 40.3 nM.

What about the IC50 (second compound 1 µM) of the same molecule?
Its IC50 is < 3.16 nM.

What about the viability, T/C (second compound 0.00316 µM, first compound 0.00316 µM) of the same molecule?
The viability, T/C was 99.4%.

And the viability, T/C (second compound 0.00316 µM, first compound 0.01 µM)?
The viability, T/C was 94.3%.

And the viability, T/C [1]?
Its viability, T/C is 102%.

What about the viability, T/C [2] of the same molecule?
The viability, T/C was 143%.

And the viability, T/C [3]?
Its viability, T/C is 165%.

And the viability, T/C [4]?
Its viability, T/C is 128%.

What about the viability, T/C (second compound 0.01 µM, first compound 0.00316 µM) of the same molecule?
Its viability, T/C is 124%.

What about the viability, T/C (second compound 0.01 µM, first compound 0.01 µM) of the same molecule?
The viability, T/C was 85%.

And the viability, T/C [5]?
The viability, T/C was 106%.

And the viability, T/C [6]?
The viability, T/C was 132%.

And the viability, T/C [7]?
Its viability, T/C is 142%.

And the viability, T/C [8]?
Its viability, T/C is 133%.

What about the viability, T/C (second compound 0.0316 µM, first compound 0.00316 µM) of the same molecule?
The viability, T/C was 98.9%.

What about the viability, T/C (second compound 0.0316 µM, first compound 0.01 µM) of the same molecule?
Its viability, T/C is 93.3%.

What about the viability, T/C [9] of the same molecule?
The viability, T/C was 107%.

And the viability, T/C [10]?
Its viability, T/C is 113%.

And the viability, T/C [11]?
The viability, T/C was 124%.

What about the viability, T/C [12] of the same molecule?
The viability, T/C was 103%.

And the viability, T/C (second compound 0.1 µM, first compound 0.00316 µM)?
Its viability, T/C is 105%.

What about the viability, T/C (second compound 0.1 µM, first compound 0.01 µM) of the same molecule?
Its viability, T/C is 95.1%.

What about the viability, T/C [13] of the same molecule?
The viability, T/C was 83%.

What about the viability, T/C [14] of the same molecule?
The viability, T/C was 81.8%.

And the viability, T/C [15]?
The viability, T/C was 75.9%.

What about the viability, T/C [16] of the same molecule?
Its viability, T/C is 62.5%.

And the viability, T/C (second compound 0.316 µM, first compound 0.00316 µM)?
The viability, T/C was 67.6%.

What about the viability, T/C (second compound 0.316 µM, first compound 0.01 µM) of the same molecule?
The viability, T/C was 74.8%.

And the viability, T/C [17]?
The viability, T/C was 52.5%.

And the viability, T/C [18]?
The viability, T/C was 42.8%.

What about the viability, T/C [19] of the same molecule?
The viability, T/C was 42.5%.

What about the viability, T/C [20] of the same molecule?
Its viability, T/C is 36.2%.

And the viability, T/C (second compound 1 µM, first compound 0.00316 µM)?
Its viability, T/C is 37.3%.

What about the viability, T/C (second compound 1 µM, first compound 0.01 µM) of the same molecule?
Its viability, T/C is 37.8%.

What about the viability, T/C [21] of the same molecule?
Its viability, T/C is 28.3%.

What about the viability, T/C [22] of the same molecule?
Its viability, T/C is 28%.

What about the viability, T/C [23] of the same molecule?
The viability, T/C was 31%.

And the viability, T/C [24]?
Its viability, T/C is 24.5%.

`Cn1ncc(Cl)c1-c1cc(C(=O)NC(CN)Cc2cccc(F)c2)sc1Cl` (centres undefined) + CC(Nc1ccc2c(c1)OCCn1cc(N3C(=O)OCC3C(F)F)nc1-2)C(N)=O was tested. Which IC50 (second compound 0.00316 µM) did it give?
Its IC50 is 608 nM.

What about the IC50 (second compound 0.01 µM) of the same molecule?
Its IC50 is 422 nM.

What about the IC50 (second compound 0.0316 µM) of the same molecule?
Its IC50 is 339 nM.

What about the IC50 (second compound 0.1 µM) of the same molecule?
Its IC50 is 226 nM.

And the IC50 (second compound 0.316 µM)?
Its IC50 is 64.6 nM.

And the IC50 (second compound 1 µM)?
Its IC50 is < 31.6 nM.

And the viability, T/C [1]?
The viability, T/C was 82.7%.

And the viability, T/C [2]?
Its viability, T/C is 73.8%.

What about the viability, T/C [3] of the same molecule?
Its viability, T/C is 48.5%.

What about the viability, T/C [4] of the same molecule?
The viability, T/C was 45.4%.

What about the viability, T/C (second compound 0.00316 µM, first compound 3.16 µM) of the same molecule?
Its viability, T/C is 39.2%.

What about the viability, T/C (second compound 0.00316 µM, first compound 10 µM) of the same molecule?
Its viability, T/C is 10.5%.

What about the viability, T/C [5] of the same molecule?
Its viability, T/C is 106%.

And the viability, T/C [6]?
The viability, T/C was 76.3%.

And the viability, T/C [7]?
The viability, T/C was 44.6%.

What about the viability, T/C [8] of the same molecule?
Its viability, T/C is 44.1%.

And the viability, T/C (second compound 0.01 µM, first compound 3.16 µM)?
The viability, T/C was 34.3%.

What about the viability, T/C (second compound 0.01 µM, first compound 10 µM) of the same molecule?
The viability, T/C was 8.87%.

And the viability, T/C [9]?
Its viability, T/C is 103%.

What about the viability, T/C [10] of the same molecule?
Its viability, T/C is 88%.

And the viability, T/C [11]?
The viability, T/C was 45.6%.

What about the viability, T/C [12] of the same molecule?
Its viability, T/C is 29%.

What about the viability, T/C (second compound 0.0316 µM, first compound 3.16 µM) of the same molecule?
Its viability, T/C is 23%.

What about the viability, T/C (second compound 0.0316 µM, first compound 10 µM) of the same molecule?
The viability, T/C was 5.6%.

What about the viability, T/C [13] of the same molecule?
Its viability, T/C is 88.5%.

What about the viability, T/C [14] of the same molecule?
Its viability, T/C is 77.6%.

And the viability, T/C [15]?
Its viability, T/C is 36.3%.

What about the viability, T/C [16] of the same molecule?
Its viability, T/C is 21.9%.

What about the viability, T/C (second compound 0.1 µM, first compound 3.16 µM) of the same molecule?
Its viability, T/C is 16.6%.

What about the viability, T/C (second compound 0.1 µM, first compound 10 µM) of the same molecule?
Its viability, T/C is 4.47%.

What about the viability, T/C [17] of the same molecule?
Its viability, T/C is 64.6%.

And the viability, T/C [18]?
Its viability, T/C is 39.7%.

And the viability, T/C [19]?
The viability, T/C was 27.7%.

What about the viability, T/C [20] of the same molecule?
The viability, T/C was 14.7%.

And the viability, T/C (second compound 0.316 µM, first compound 3.16 µM)?
The viability, T/C was 13.5%.

And the viability, T/C (second compound 0.316 µM, first compound 10 µM)?
Its viability, T/C is 3.25%.

And the viability, T/C [21]?
Its viability, T/C is 45.1%.

And the viability, T/C [22]?
Its viability, T/C is 25.5%.

And the viability, T/C [23]?
The viability, T/C was 12.5%.

What about the viability, T/C [24] of the same molecule?
Its viability, T/C is 11%.

What about the viability, T/C (second compound 1 µM, first compound 3.16 µM) of the same molecule?
Its viability, T/C is 10.1%.

And the viability, T/C (second compound 1 µM, first compound 10 µM)?
The viability, T/C was 1.75%.
